Assay [1] deals with T1, human AT1 receptor (Homo sapiens, UniProt P30556).
T1 construct: expressed in transfected cells; membrane fraction
T1 sequence (P30556 1-359): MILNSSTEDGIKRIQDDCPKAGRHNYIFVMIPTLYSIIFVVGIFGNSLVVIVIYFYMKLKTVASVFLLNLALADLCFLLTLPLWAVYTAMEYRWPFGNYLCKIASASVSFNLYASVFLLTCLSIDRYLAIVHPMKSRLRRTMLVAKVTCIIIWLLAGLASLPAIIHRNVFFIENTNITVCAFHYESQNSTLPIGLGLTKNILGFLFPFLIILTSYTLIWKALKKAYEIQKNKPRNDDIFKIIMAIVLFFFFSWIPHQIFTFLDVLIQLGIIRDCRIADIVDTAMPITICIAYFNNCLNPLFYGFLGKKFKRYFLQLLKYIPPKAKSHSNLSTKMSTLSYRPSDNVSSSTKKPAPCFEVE
Kind of assay: AT1 receptor antagonistic activity: [125I]-angiotensin II binding assay on human AT1 receptor-expressing CHO-K1 cellular membrane fraction. As to conditions: 22.5 pM [125I]-angiotensin II, 1 hr room temperature. In short, it runs like this:
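Competition binding used radiolabelled angiotensin II on stably transfected CHO-K1 membrane fractions in Tris pH 7.4/MgCl2 buffer, optionally containing 0.3 mg/mL fatty acid-free BSA, 1 hr at room temperature. Filtration onto GF/C separated bound tracer, and nonspecific binding was measured with candesartan.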

Assay [2] addresses T2, human PPARγ (Homo sapiens, UniProt P37231).
T2 construct: expressed in transfected cells
T2 sequence (P37231 1-477 isoform P37231-2): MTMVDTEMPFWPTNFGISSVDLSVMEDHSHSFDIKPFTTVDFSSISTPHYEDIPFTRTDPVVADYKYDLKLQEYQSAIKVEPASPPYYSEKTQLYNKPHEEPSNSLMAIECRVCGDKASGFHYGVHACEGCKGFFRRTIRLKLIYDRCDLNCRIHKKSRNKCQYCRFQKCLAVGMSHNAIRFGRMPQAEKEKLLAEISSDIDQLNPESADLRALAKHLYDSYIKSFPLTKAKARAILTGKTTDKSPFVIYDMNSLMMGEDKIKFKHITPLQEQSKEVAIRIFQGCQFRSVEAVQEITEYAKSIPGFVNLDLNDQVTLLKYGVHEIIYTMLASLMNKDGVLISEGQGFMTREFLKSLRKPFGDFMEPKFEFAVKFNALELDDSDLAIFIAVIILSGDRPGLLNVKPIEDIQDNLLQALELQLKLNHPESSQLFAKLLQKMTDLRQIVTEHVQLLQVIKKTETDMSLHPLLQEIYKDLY
T2 sequence (P19793 1-462 partner): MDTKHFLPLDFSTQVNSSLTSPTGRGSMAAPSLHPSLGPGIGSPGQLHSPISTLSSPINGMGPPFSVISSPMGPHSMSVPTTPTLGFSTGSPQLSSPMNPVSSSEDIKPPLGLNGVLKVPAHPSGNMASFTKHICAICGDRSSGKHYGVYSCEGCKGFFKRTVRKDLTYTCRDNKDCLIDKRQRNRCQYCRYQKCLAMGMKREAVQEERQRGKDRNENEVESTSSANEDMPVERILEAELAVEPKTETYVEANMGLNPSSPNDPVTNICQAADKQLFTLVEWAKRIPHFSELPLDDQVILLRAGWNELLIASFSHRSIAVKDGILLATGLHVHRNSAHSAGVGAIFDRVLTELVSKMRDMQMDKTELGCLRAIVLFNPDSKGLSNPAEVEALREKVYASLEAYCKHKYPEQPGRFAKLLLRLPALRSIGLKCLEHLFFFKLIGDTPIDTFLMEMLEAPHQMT
Briefly: PPARγ agonistic activity: luciferase reporter assay in PPARγ:RXRα:4ERPP/CHO-K1 cells. As to conditions: CHO-K1, test compound 10^−6 M; luciferase activity of control compound X (1 μM) = 100%, non-administration group = 0%. The class given is cell-based. The essentials:
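Activity is expressed relative to untreated cells (0%) and 1 μM reference compound X (100%), from luciferase luminescence. Reporter line: PPARγ:RXRα:4ERPP/CHO-K1, exposed to compound for one day at 37 °C in F12 medium containing 0.1% fatty-acid-free BSA.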

SMILES strings stand for the structures.

What is called IC50 is the point on the concentration scale where inhibition reaches its midpoint. `CCCc1c(Cc2ccc(-c3ccccc3-c3noc(=O)[nH]3)cc2)c(=O)n([C@H]2CC[C@@H](Oc3ccon3)CC2)c2ncnn12` [Example 281, 4-[cis-4-(isoxazol-3-yloxy)cyclohexyl]-6-{[2′-(5-oxo-4,5-dihydro-1,2,4-oxadiazol-3-yl)biphenyl-4-yl]methyl}-7-propyl[1,2,4]triazolo[1,5-a]pyrimidin-5(4H)-one] came in with an IC50 in assay [1] of 1.8 nM. This compound yielded an activation at 1 µM in assay [2] of 42%.

`CCCc1c(Cc2ccc(-c3ccccc3-c3noc(=O)[nH]3)cc2)c(=O)n([C@H]2CC[C@H](Oc3ccon3)CC2)c2ncnn12` [Example 282, 4-[trans-4-(isoxazol-3-yloxy)cyclohexyl]-6-{[2′-(5-oxo-4,5-dihydro-1,2,4-oxadiazol-3-yl)biphenyl-4-yl]methyl}-7-propyl[1,2,4]triazolo[1,5-a]pyrimidin-5(4H)-one] came in with an IC50 in assay [1] of 2.2 nM. Further, the activation at 1 µM in assay [2] turned out to be 53%.

Compound `C=C1COC2(CCC(n3c(=O)c(Cc4ccc(-c5ccccc5-c5noc(=O)[nH]5)cc4)c(CCC)n4ncnc34)CC2)OC1` [Example 285, 4-(3-methylidene-1,5-dioxaspiro[5.5]undec-9-yl)-6-{[2′-(5-oxo-4,5-dihydro-1,2,4-oxadiazol-3-yl)biphenyl-4-yl]methyl}-7-propyl[1,2,4]triazolo[1,5-a]pyrimidin-5(4H)-one] came in with an IC50 in assay [1] of 3.1 nM. In assay [2], this compound returned an activation at 1 µM of 34%.

As to `CCCc1c(Cc2ccc(-c3ccccc3-c3noc(=O)[nH]3)cc2)c(=O)n(C2CCC3(CC2)OCCCO3)c2ncnn12` [Example 286, 4-(1,5-dioxaspiro[5.5]undec-9-yl)-6-{[2′-(5-oxo-4,5-dihydro-1,2,4-oxadiazol-3-yl)biphenyl-4-yl]methyl}-7-propyl[1,2,4]triazolo[1,5-a]pyrimidin-5(4H)-one], the IC50 in assay [1] was 3.1 nM. In assay [2], this compound returned an activation at 1 µM of 39%.

In turn, `CCCc1c(Cc2ccc(-c3ccccc3-c3noc(=O)[nH]3)cc2)c(=O)n([C@H]2CC[C@@H](OCCO)CC2)c2nc(C)nn12` [Example 288, 4-[cis-4-(2-hydroxyethoxy)cyclohexyl]-2-methyl-6-{[2′-(5-oxo-4,5-dihydro-1,2,4-oxadiazol-3-yl)biphenyl-4-yl]methyl}-7-propyl[1,2,4]triazolo[1,5-a]pyrimidin-5(4H)-one] came in with a concentration for half-maximal inhibition (IC50) in assay [1] of 2.7 nM. Further, the activation at 1 µM in assay [2] came out at 17%.

`CCCc1c(Cc2ccc(-c3ccccc3-c3noc(=O)[nH]3)cc2)c(=O)n(C2CCC3(CC2)OC(=O)C(C)(C)O3)c2ncnn12` (stereo not drawn) [Example 290, 4-(2,2-dimethyl-3-oxo-1,4-dioxaspiro[4.5]dec-8-yl)-6-{[2′-(5-oxo-4,5-dihydro-1,2,4-oxadiazol-3-yl)biphenyl-4-yl]methyl}-7-propyl[1,2,4]triazolo[1,5-a]pyrimidin-5(4H)-one]: in assay [1], the IC50 worked out at 3.2 nM. This compound yielded an activation at 1 µM in assay [2] of 25%.

On to `CCCc1c(Cc2ccc(-c3ccccc3-c3noc(=O)[nH]3)cc2)c(=O)n(C2CCC3(CC2)OCCO3)c2nc(C)nn12` [Example 292, 4-(1,4-dioxaspiro[4.5]dec-8-yl)-2-methyl-6-{[2′-(5-oxo-4,5-dihydro-1,2,4-oxadiazol-3-yl)biphenyl-4-yl]methyl}-7-propyl[1,2,4]triazolo[1,5-a]pyrimidin-5(4H)-one], for which the IC50 in assay [1] was 1.9 nM. This compound came in with an activation at 1 µM in assay [2] of 46%.

In assay [1], `CCCc1c(Cc2ccc(-c3ccccc3-c3noc(=O)[nH]3)cc2)c(=O)n(C2CCC3(CC2)O[C@H]2COC[C@H]2O3)c2ncnn12` (stereo partly drawn) [Example 293, 6-{[2′-(5-oxo-4,5-dihydro-1,2,4-oxadiazol-3-yl)biphenyl-4-yl]methyl}-7-propyl-4-(tetrahydrospiro[cyclohexane-1,2′-furo[3,4-d][1,3]dioxol]-4-yl)[1,2,4]triazolo[1,5-a]pyrimidin-5(4H)-one] registered an IC50 of 2.3 nM. The compound further came in with an activation at 1 µM in assay [2] of 28%.

Compound `CCCc1c(Cc2ccc(-c3ccccc3-c3noc(=O)[nH]3)cc2)c(=O)n(C2CCC3(CC2)OCC(CO)O3)c2ncnn12` (stereo not drawn) [Example 294, 4-[2-(hydroxymethyl)-1,4-dioxaspiro[4.5]dec-8-yl]-6-{[2′-(5-oxo-4,5-dihydro-1,2,4-oxadiazol-3-yl)biphenyl-4-yl]methyl}-7-propyl[1,2,4]triazolo[1,5-a]pyrimidin-5(4H)-one] registered an IC50 in assay [1] of 2.1 nM. For the same compound, the activation at 1 µM in assay [2] came to 31%.

As for `CCCc1c(Cc2ccc(-c3ccccc3-c3noc(=O)[nH]3)cc2)c(=O)n([C@H]2CC[C@H](OCC(C)(C)O)CC2)c2nc(C)nn12` [Example 296, 4-[trans-4-(2-hydroxy-2-methylpropoxy)cyclohexyl]-2-methyl-6-{[2′-(5-oxo-4,5-dihydro-1,2,4-oxadiazol-3-yl)biphenyl-4-yl]methyl}-7-propyl[1,2,4]triazolo[1,5-a]pyrimidin-5(4H)-one], the IC50 in assay [1] was determined as 1.7 nM. The activation at 1 µM in assay [2] was 29%.

For the compound `CCCc1c(Cc2ccc(-c3ccccc3-c3noc(=O)[nH]3)cc2)c(=O)n([C@H]2CC[C@](O)(COC)CC2)c2ncnn12` [Example 297, 4-[cis-4-hydroxy-4-(methoxymethyl)cyclohexyl]-6-{[2′-(5-oxo-4,5-dihydro-1,2,4-oxadiazol-3-yl)biphenyl-4-yl]methyl}-7-propyl[1,2,4]triazolo[1,5-a]pyrimidin-5(4H)-one], the IC50 in assay [1] stood at 2.8 nM. In addition, the activation at 1 µM in assay [2] amounted to 53%.

The compound `CCCc1c(Cc2ccc(-c3ccccc3-c3noc(=O)[nH]3)cc2)c(=O)n([C@H]2CC[C@H](OC(C)C(C)O)CC2)c2ncnn12` (stereo partly drawn) [Example 299, 4-[trans-4-(2-hydroxy-1-methylpropoxy)cyclohexyl]-6-{[2′-(5-oxo-4,5-dihydro-1,2,4-oxadiazol-3-yl)biphenyl-4-yl]methyl}-7-propyl[1,2,4]triazolo[1,5-a]pyrimidin-5(4H)-one] showed an IC50 in assay [1] of 1.8 nM. The activation at 1 µM in assay [2] was determined as 19%.

In assay [1], `CCCc1c(Cc2ccc(-c3ccccc3-c3noc(=O)[nH]3)cc2)c(=O)n([C@H]2CC[C@H](OC(C)C(C)(C)O)CC2)c2ncnn12` (stereo partly drawn) [Example 300, 4-[trans-4-(2-hydroxy-1,2-dimethylpropoxy)cyclohexyl]-6-{[2′-(5-oxo-4,5-dihydro-1,2,4-oxadiazol-3-yl)biphenyl-4-yl]methyl}-7-propyl[1,2,4]triazolo[1,5-a]pyrimidin-5(4H)-one] yielded an IC50 of 1.8 nM. For the same compound, the activation at 1 µM in assay [2] was determined as 16%.

As for `CCCc1c(Cc2ccc(-c3ccccc3-c3noc(=O)[nH]3)cc2)c(=O)n([C@H]2CC[C@H](OCC(O)C(F)(F)F)CC2)c2ncnn12` (stereo partly drawn) [Example 325, 6-{[2′-(5-oxo-4,5-dihydro-1,2,4-oxadiazol-3-yl)biphenyl-4-yl]methyl}-7-propyl-4-[trans-4-(3,3,3-trifluoro-2-hydroxypropoxy)cyclohexyl][1,2,4]triazolo[1,5-a]pyrimidin-5(4H)-one], in assay [1], the IC50 stood at 2 nM. The compound further gave an activation at 1 µM in assay [2] of 31%.

Take `CCCc1c(Cc2ccc(-c3ccccc3-c3noc(=O)[nH]3)cc2)c(=O)n([C@H]2CC[C@H](OCC(O)CC)CC2)c2ncnn12` (stereo partly drawn) [Example 326, 4-[trans-4-(2-hydroxybutoxy)cyclohexyl]-6-{[2′-(5-oxo-4,5-dihydro-1,2,4-oxadiazol-3-yl)biphenyl-4-yl]methyl}-7-propyl[1,2,4]triazolo[1,5-a]pyrimidin-5(4H)-one]: in assay [1], the IC50 came to 1.8 nM. The same compound had an activation at 1 µM in assay [2] of 29%.

(Values after patent US8283353B2, “Fused ring compound and use thereof” (Takeda Pharmaceutical Company Limited, priority 2009, dated 2012).)
